# Assay results as given in ChEMBL document CHEMBL4041467, “Synthesis of novel 15-membered 8a-azahomoerythromycin A acylides: Consequences of structural modification at the C-3 and C-6 position on antibacterial activity” (Eur J Med Chem, 2017).
# Legend:
# Streptococcus pyogenes [1] = assay: Antibacterial activity against constitutively macrolide/lincosamide/streptogramin B-resistant Streptococcus pyogenes by agar microdilution method; format: functional
# Streptococcus pneumoniae [2] = assay: Antibacterial activity against constitutively macrolide/lincosamide/streptogramin B-resistant Streptococcus pneumoniae by agar microdilution method; format: functional
# Streptococcus pneumoniae [3] = assay: Antibacterial activity against erythromycin susceptible Streptococcus pneumoniae by agar microdilution method; format: functional
# Staphylococcus aureus [4] = assay: Antibacterial activity against inducibly macrolide/lincosamide/streptogramin B-resistant Staphylococcus aureus by agar microdilution method; format: functional
# Staphylococcus aureus [5] = assay: Antibacterial activity against constitutively macrolide/lincosamide/streptogramin B-resistant Staphylococcus aureus by agar microdilution method; format: functional
# Streptococcus pyogenes [6] = assay: Antibacterial activity against erythromycin susceptible Streptococcus pyogenes by agar microdilution method; format: functional
# Streptococcus pneumoniae [7] = assay: Antibacterial activity against Mef-mediated macrolide efflux resistant Streptococcus pneumoniae by agar microdilution method; format: functional
# Staphylococcus aureus [8] = assay: Antibacterial activity against erythromycin susceptible Staphylococcus aureus by agar microdilution method; format: functional
# Streptococcus pyogenes [9] = assay: Antibacterial activity against Mef-mediated macrolide efflux resistant Streptococcus pyogenes by agar microdilution method; format: functional
# Haemophilus influenzae = assay: Antibacterial activity against Haemophilus influenzae by agar microdilution method; format: functional
# Staphylococcus aureus [10] = assay: Antibacterial activity against erythromycin susceptible Staphylococcus aureus infected in mouse assessed as increase in mouse survival administered orally 1 hr post infection; format: functional; conditions: po
# Streptococcus pneumoniae [11] = assay: Antibacterial activity against erythromycin susceptible Streptococcus pneumoniae infected in mouse assessed as increase in mouse survival administered orally 1 hr post infection; format: functional; conditions: po
# Staphylococcus aureus [12] = assay: Potency index, ratio of clarithromycin ED50 to compound ED50 for erythromycin susceptible Staphylococcus aureus infected in mouse; format: functional
# Streptococcus pneumoniae [13] = assay: Potency index, ratio of clarithromycin ED50 to compound ED50 for erythromycin susceptible Streptococcus pneumoniae infected in mouse; format: functional
# [14] = Cmax in Han Wistar rat at 10 mg/kg, iv by LC-MS/MS analysis; format: ADME, organism-based; set-up: dose 10 mg/kg, route intravenous; conditions: in vivo
# [15] = AUC(0 to infinity) in Han Wistar rat at 10 mg/kg, iv by LC-MS/MS analysis; format: ADME, organism-based; set-up: dose 10 mg/kg, route intravenous, time infinity; conditions: in vivo
# [16] = Terminal half life in Han Wistar rat at 10 mg/kg, iv by LC-MS/MS analysis; format: ADME, organism-based; conditions: in vivo, read-out: beta t1/2 (converted)
# [17] = Clearance in Han Wistar rat at 10 mg/kg, iv by LC-MS/MS analysis; format: ADME, organism-based; conditions: in vivo
# Rattus norvegicus = assay: Unbound clearance in Han Wistar rat at 10 mg/kg, iv by LC-MS/MS analysis; format: ADME, organism-based; conditions: in vivo
# [18] = Volume of distribution at steady state in Han Wistar rat at 10 mg/kg, iv by LC-MS/MS analysis; format: ADME, organism-based; conditions: in vivo, read-out: Vdss
# [19] = Fraction unbound in Han Wistar rat plasma at 10 mg/kg, iv by LC-MS/MS analysis; format: ADME, organism-based
# [20] = Cmax in Han Wistar rat at 20 mg/kg, po by LC-MS/MS analysis; format: ADME, organism-based; set-up: dose 20 mg/kg, route oral; conditions: in vivo
# [21] = Tmax in Han Wistar rat at 20 mg/kg, po by LC-MS/MS analysis; format: ADME, organism-based; conditions: in vivo
# [22] = AUC(0 to infinity) in Han Wistar rat at 20 mg/kg, po by LC-MS/MS analysis; format: ADME, organism-based; set-up: dose 20 mg/kg, time infinity, route oral; conditions: in vivo
# [23] = Oral bioavailability in Han Wistar rat at 20 mg/kg by LC-MS/MS analysis; format: ADME, organism-based; conditions: in vivo
# [24] = AUC(0 to t) in Han Wistar rat at 10 mg/kg, iv by LC-MS/MS analysis; format: ADME, organism-based; conditions: in vivo
# [25] = Protein binding in mouse plasma at 1 ug/ml by LC-MS/MS analysis; format: ADME, cell-free; conditions: read-out: PPB (converted)
# [26] = Protein binding in rat plasma at 1 ug/ml by LC-MS/MS analysis; format: ADME, cell-free; conditions: read-out: PPB (converted)
# [27] = (§1) Protein binding in human plasma at 1 ug/ml by LC-MS/MS analysis; format: ADME, cell-free; conditions: read-out: PPB (converted)
# Plasma [28] = assay: Stability in rat plasma at 1 uM up to 120 mins by LC-MS/MS analysis; format: ADME, cell-free; conditions: 2 h
# [29] = AUC(0 to t) in Han Wistar rat at 20 mg/kg, po by LC-MS/MS analysis; format: ADME, organism-based; conditions: in vivo
# Liver [30] = assay: Intrinsic clearance in mouse liver microsomes at 1 uM after 60 mins in presence of NADP by LC-MS/MS analysis; format: ADME, microsome; conditions: 1 h
# Liver [31] = assay: Intrinsic clearance in rat liver microsomes at 1 uM after 60 mins in presence of NADP by LC-MS/MS analysis; format: ADME, microsome; conditions: 1 h
# Liver [32] = assay: Intrinsic clearance in human liver microsomes at 1 uM after 60 mins in presence of NADP by LC-MS/MS analysis; format: ADME, microsome; conditions: 1 h
# [33] = Metabolic stability in mouse liver microsomes assessed as parent compound remaining at 1 uM after 60 mins in presence of NADP by LC-MS/MS analysis; format: ADME, microsome; conditions: read-out: Stability
# [34] = Metabolic stability in rat liver microsomes assessed as parent compound remaining at 1 uM after 60 mins in presence of NADP by LC-MS/MS analysis; format: ADME, microsome; conditions: read-out: Stability
# [35] = Metabolic stability in human liver microsomes assessed as parent compound remaining at 1 uM after 60 mins in presence of NADP by LC-MS/MS analysis; format: ADME, microsome; conditions: read-out: Stability
# [36] = Cmax in Han Wistar rat at 30 mg/kg, po by LC-MS/MS analysis; format: ADME, organism-based; set-up: dose 30 mg/kg, route oral; conditions: in vivo
# [37] = Tmax in Han Wistar rat at 30 mg/kg, po by LC-MS/MS analysis; format: ADME, organism-based; conditions: in vivo
# [38] = AUC(0 to infinity) in Han Wistar rat at 30 mg/kg, po by LC-MS/MS analysis; format: ADME, organism-based; set-up: dose 30 mg/kg, time infinity, route oral; conditions: in vivo
# [39] = Oral bioavailability in Han Wistar rat at 30 mg/kg by LC-MS/MS analysis; format: ADME, organism-based; conditions: in vivo
# Plasma [40] = assay: Drug uptake in Han Wistar rat plasma at 10 mg/kg, iv up to 8 hrs by LC-MS/MS analysis; format: ADME, organism-based; conditions: in vivo
# Plasma [41] = assay: Drug uptake in Han Wistar rat plasma at 30 mg/kg, po up to 4 hrs by LC-MS/MS analysis; format: ADME, organism-based; conditions: in vivo
# [42] = AUC(0 to t) in Han Wistar rat at 30 mg/kg, po by LC-MS/MS analysis; format: ADME, organism-based; conditions: in vivo
# Staphylococcus aureus [43] = assay: Ratio of MIC for inducibly macrolide/lincosamide/streptogramin B-resistant Staphylococcus aureus to MIC for erythromycin susceptible Staphylococcus aureus; format: functional
# Plasma [44] = assay: as §1; format: ADME, cell-free
SMILES,MIC (Streptococcus pyogenes [1]) [µg/mL],MIC (Streptococcus pneumoniae [2]) [µg/mL],MIC (Streptococcus pneumoniae [3]) [µg/mL],MIC (Staphylococcus aureus [4]) [µg/mL],MIC (Staphylococcus aureus [5]) [µg/mL],MIC (Streptococcus pyogenes [6]) [µg/mL],MIC (Streptococcus pneumoniae [7]) [µg/mL],MIC (Staphylococcus aureus [8]) [µg/mL],MIC (Streptococcus pyogenes [9]) [µg/mL],MIC (Haemophilus influenzae) [µg/mL],ED50 (Staphylococcus aureus [10]) [mg/kg],ED50 (Streptococcus pneumoniae [11]) [mg/kg],Cmax [14] [ng/mL],AUC(0-inf) [15] [ng·h/mL],fraction unbound at 1 ug/ml [25],fraction unbound at 1 ug/ml [26],fraction unbound at 1 ug/ml [27],"remaining at 1 h, 1 µM [33] [%]","remaining at 1 h, 1 µM [34] [%]","remaining at 1 h, 1 µM [35] [%]",also measured
CC[C@H]1OC(=O)[C@H](C)[C@@H](OC(=O)CCNCCNc2cc3c(=O)c(C(=O)O)cn(C4CC4)c3cc2Cl)[C@H](C)[C@@H](O[C@@H]2O[C@H](C)C[C@H](N(C)C)[C@H]2O)[C@](C)(OC/C=C/c2cnc3ccccc3c2)C[C@@H](C)NC(=O)[C@H](C)[C@@H](O)[C@]1(C)O,4,≤ 0.125,≤ 0.06,0.25,> 64,≤ 0.06,≤ 0.125,≤ 0.125,0.25,1,6,4.5,2480,8510,0.3,0.42,0.4,100,100,100,Ratio ED50 (Staphylococcus aureus [12]): 4; Ratio ED50 (Streptococcus pneumoniae [13]): 6; half-life [16]: 4.3 h; clearance [17]: 20.3 mL/min/kg; CL free (Rattus norvegicus): 48.3 mL/min/kg; Vd [18]: 6.7 L/kg; fraction unbound [19]: 0.42; Cmax [20]: 630 ng/mL; Tmax [21]: 3.3 h; AUC(0-inf) [22]: 7500 ng·h/mL; bioavailability [23]: 41.8%; AUC(0-t) [24]: 4800 to 10000 ng·h/mL; Stability (Plasma [28]): Stable; AUC(0-t) [29]: 2040 to 9730 ng·h/mL; CLH (Liver [30]): < 0.6 mL/min/g; CLH (Liver [31]): < 0.6 mL/min/g; CLH (Liver [32]): < 0.6 mL/min/g
C=CCO[C@]1(C)C[C@@H](C)NC(=O)[C@H](C)[C@@H](O)[C@](C)(O)[C@@H](CC)OC(=O)[C@H](C)[C@@H](OC(=O)CCNCCNc2cc3c(=O)c(C(=O)O)cn(C4CC4)c3cc2Cl)[C@H](C)[C@H]1O[C@@H]1O[C@H](C)C[C@H](N(C)C)[C@H]1O,4,1,≤ 0.125,0.25,> 64,≤ 0.125,–,≤ 0.125,0.25,2,26.5,46.5,3870,4080,0.45,0.63,0.51,100,100,99,half-life [16]: 1.6 h; clearance [17]: 44.7 mL/min/kg; CL free (Rattus norvegicus): 71 mL/min/kg; Vd [18]: 3.2 L/kg; Cmax [36]: 440 ng/mL; fraction unbound [19]: 0.63; Tmax [37]: 0.31 h; AUC(0-inf) [38]: 510 ng·h/mL; bioavailability [39]: 4.9%; Drug uptake (Plasma [40]): Active; Drug uptake (Plasma [41]): Active; AUC(0-t) [24]: 2450 to 5340 ng·h/mL; AUC(0-t) [42]: 50 to 520 ng·h/mL; Stability (Plasma [28]): Stable; CLH (Liver [30]): < 0.6 mL/min/g; CLH (Liver [31]): < 0.6 mL/min/g; CLH (Liver [32]): < 0.6 mL/min/g
CC[C@H]1OC(=O)[C@H](C)[C@@H](O[C@H]2C[C@@](C)(OC)[C@@H](O)[C@H](C)O2)[C@H](C)[C@@H](O[C@@H]2O[C@H](C)C[C@H](N(C)C)[C@H]2O)[C@](C)(O)C[C@@H](C)CN(C)[C@H](C)[C@@H](O)[C@]1(C)O [AZITHROMYCIN],> 64,> 64,≤ 0.125,> 64,> 64,≤ 0.125,4,1,1,1,–,–,–,–,0.73,0.72,0.64,100,100,100,Ratio (Staphylococcus aureus [43]): 64
CC[C@H]1OC(=O)[C@H](C)[C@@H](O[C@H]2C[C@@](C)(OC)[C@@H](O)[C@H](C)O2)[C@H](C)[C@@H](O[C@@H]2O[C@H](C)C[C@H](N(C)C)[C@H]2O)[C@](C)(OC)C[C@@H](C)C(=O)[C@H](C)[C@@H](O)[C@]1(C)O [CLARITHROMYCIN],–,–,–,–,–,–,–,–,–,–,22.4 to 24.8,27.2 to 34.6,–,–,0.88,1,–,100,92.5,91,PPB (Plasma [44]): 11%
CC[C@H]1OC(=O)[C@H](C)C(=O)[C@H](C)[C@@H](O[C@@H]2O[C@H](C)C[C@H](N(C)C)[C@H]2O)[C@](C)(OC)C[C@@H](C)C(=O)[C@H](C)[C@H]2N(CCCCn3cnc(-c4cccnc4)c3)C(=O)O[C@]12C [TELITHROMYCIN],4,≤ 0.125,≤ 0.06,0.25,> 64,≤ 0.06,≤ 0.125,≤ 0.125,0.25,2,5,7.2,1850,3950,0.41,0.56,0.5,–,–,–,half-life [16]: 1.7 h; clearance [17]: 42.5 mL/min/kg; CL free (Rattus norvegicus): 75.9 mL/min/kg; Vd [18]: 5.6 L/kg; fraction unbound [19]: 0.56; Cmax [20]: 340 ng/mL; Tmax [21]: 2.3 h; AUC(0-inf) [22]: 2730 ng·h/mL; bioavailability [23]: 33%
